Data published in ChEMBL document CHEMBL1136713, “Structure-activity relationships of acetylcholinesterase noncovalent inhibitors based on a polyamine backbone. 2. Role of the substituents on the phenyl ring and nitrogen atoms of caproctamine” (J Med Chem, 2003).

Legend:
[1] = molecular target: Cholinesterase (Homo sapiens, UniProt P06276)
Description: Inhibitory concentration against butyrylcholinesterase from human serum

[2] = molecular target: T1, Acetylcholinesterase (Homo sapiens, UniProt P22303)
Description: Inhibitory concentration against acetylcholinesterase from human erythrocytes

[3] = species: Cavia porcellus
Description: Ability to reverse the D-tubocurarine-induced neuromuscular blockade in guinea pig left atrium

[4] = Apparent dissociation constant of compound was evaluated; type: ADME
[5] = molecular target: T2, Muscarinic acetylcholine receptor M2 (Homo sapiens) (UniProt P08172); assay: Antagonistic potency of compound towards Muscarinic acetylcholine receptor M2 in guinea pig left atrium; type: functional, tissue-based; conditions: Cavia porcellus; Cardiac atrium; target entry is the homologue from another species
T2 sequence (whole entry): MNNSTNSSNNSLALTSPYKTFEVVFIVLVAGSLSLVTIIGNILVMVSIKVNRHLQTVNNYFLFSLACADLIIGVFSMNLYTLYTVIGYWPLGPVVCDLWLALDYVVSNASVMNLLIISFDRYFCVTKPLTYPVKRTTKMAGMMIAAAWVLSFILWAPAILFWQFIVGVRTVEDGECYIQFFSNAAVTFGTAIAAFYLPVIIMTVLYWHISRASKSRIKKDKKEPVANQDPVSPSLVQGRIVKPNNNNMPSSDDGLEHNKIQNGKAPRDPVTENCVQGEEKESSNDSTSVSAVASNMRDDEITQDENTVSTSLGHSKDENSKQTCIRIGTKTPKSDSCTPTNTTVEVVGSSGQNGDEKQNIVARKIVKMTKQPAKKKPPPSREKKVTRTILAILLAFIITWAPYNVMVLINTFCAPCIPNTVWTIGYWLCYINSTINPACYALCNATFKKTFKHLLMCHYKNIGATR

[6] = molecular target: T1, Acetylcholinesterase; remark: listed apart in the source
Description: Inhibitory concentration of compound against acetylcholinesterase from human erythrocytes at pH=8.0

[7] = molecular target: T1, Acetylcholinesterase; remark: listed apart in the source
Description: Inhibitory concentration of compound against acetylcholinesterase from human erythrocytes at pH=7.5

[8] = molecular target: T1, Acetylcholinesterase; remark: listed apart in the source
Description: Inhibitory concentration of compound against acetylcholinesterase from human erythrocytes at pH=7.0

[9] = molecular target: T1, Acetylcholinesterase; remark: listed apart in the source
Description: Inhibitory activity of compound against acetylcholinesterase from human erythrocytes

Sequence of Cholinesterase (P06276 whole entry): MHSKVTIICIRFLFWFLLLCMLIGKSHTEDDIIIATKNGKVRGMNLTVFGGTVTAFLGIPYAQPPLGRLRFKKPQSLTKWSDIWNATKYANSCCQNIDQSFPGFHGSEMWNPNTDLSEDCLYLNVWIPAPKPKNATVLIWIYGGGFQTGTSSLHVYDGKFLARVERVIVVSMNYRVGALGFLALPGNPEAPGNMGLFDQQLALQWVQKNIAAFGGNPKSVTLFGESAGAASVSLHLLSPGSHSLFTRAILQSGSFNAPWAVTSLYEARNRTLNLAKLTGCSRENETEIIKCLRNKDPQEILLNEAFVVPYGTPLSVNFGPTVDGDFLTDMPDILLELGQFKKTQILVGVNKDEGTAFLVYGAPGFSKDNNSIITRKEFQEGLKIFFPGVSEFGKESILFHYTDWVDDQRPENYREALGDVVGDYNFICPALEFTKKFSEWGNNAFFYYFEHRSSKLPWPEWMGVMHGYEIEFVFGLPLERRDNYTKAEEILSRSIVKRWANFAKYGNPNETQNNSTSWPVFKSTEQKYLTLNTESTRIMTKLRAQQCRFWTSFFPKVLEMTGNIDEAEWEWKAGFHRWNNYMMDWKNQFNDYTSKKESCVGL
T1 sequence (P22303 whole entry): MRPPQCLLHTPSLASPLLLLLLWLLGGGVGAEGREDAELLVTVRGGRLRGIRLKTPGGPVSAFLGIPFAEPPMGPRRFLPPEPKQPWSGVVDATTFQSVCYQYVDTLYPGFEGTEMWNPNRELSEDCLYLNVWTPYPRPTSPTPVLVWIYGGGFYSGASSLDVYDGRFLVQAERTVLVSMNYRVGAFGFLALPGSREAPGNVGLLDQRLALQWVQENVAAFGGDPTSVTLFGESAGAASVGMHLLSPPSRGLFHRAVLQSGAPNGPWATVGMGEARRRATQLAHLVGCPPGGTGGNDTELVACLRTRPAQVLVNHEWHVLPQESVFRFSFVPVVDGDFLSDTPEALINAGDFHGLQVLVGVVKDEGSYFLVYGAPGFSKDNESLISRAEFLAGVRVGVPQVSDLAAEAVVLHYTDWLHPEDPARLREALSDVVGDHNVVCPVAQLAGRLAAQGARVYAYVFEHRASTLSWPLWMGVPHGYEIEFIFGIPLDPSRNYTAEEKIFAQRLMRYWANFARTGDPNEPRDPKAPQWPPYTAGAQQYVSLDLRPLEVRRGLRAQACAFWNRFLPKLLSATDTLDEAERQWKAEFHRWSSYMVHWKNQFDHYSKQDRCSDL

Structure (SMILES)	IC50 [1] [nM]	IC50 [2] [nM]	pAI50 [3]	pKa [4]	pKb [5]	IC50 [6] [nM]	IC50 [7] [nM]	IC50 [8] [nM]	Ki [9] [nM]
CC[N+](C)(CCCCCC(=O)N(C)CCCCCCCCN(C)C(=O)CCCCC[N+](C)(CC)Cc1ccccc1C(F)(F)F)Cc1ccccc1C(F)(F)F (configuration not stated)	7590	11.7							
CCN(CCCCCC(=O)N(C)CCCCCCCCN(C)C(=O)CCCCCN(CC)Cc1ccccc1C)Cc1ccccc1C	7410	56.2	6.35	7.46					
COc1cccc(CN(C)CCCCCC(=O)N(C)CCCCCCCCN(C)C(=O)CCCCCN(C)Cc2cccc(OC)c2)c1	8320	676							
CCN(CCCCCC(=O)N(C)CCCCCCCCN(C)C(=O)CCCCCN(CC)Cc1ccccc1C(F)(F)F)Cc1ccccc1C(F)(F)F	166000	4570	6.84	6.15	< 5				
CC[N+](C)(CCCCCC(=O)N(C)CCCCCCCCN(C)C(=O)CCCCC[N+](C)(CC)Cc1ccccc1)Cc1ccccc1 (configuration not stated)	2510	37.2							
CCCOc1ccccc1CN(CC)CCCCCC(=O)N(C)CCCCCCCCN(C)C(=O)CCCCCN(CC)Cc1ccccc1OCCC	166	33.9	6.19	7.75					
CC[N+](C)(CCCCCCOCCCCCCCCOCCCCCC[N+](C)(CC)Cc1ccccc1OC)Cc1ccccc1OC (configuration not stated)	759	77.6							
CC[N+](C)(CCCCCC(=O)N(C)CCCCCCCCN(C)C(=O)CCCCC[N+](C)(CC)Cc1ccccc1[N+](=O)[O-])Cc1ccccc1[N+](=O)[O-] (configuration not stated)	2400	12.3				12.3	12.9	12.6	
CCN(CCCCCCOCCCCCCCCOCCCCCCN(CC)Cc1ccccc1OC)Cc1ccccc1OC	2630	204							
COc1ccccc1CN(C)CCCCCC(=O)N(C)CCCCCCCCN(C)C(=O)CCCCCN(C)Cc1ccccc1OC [CAPROCTAMINE]			5.79		6.39				104
CC[N+](C)(CCCCCC(=O)N(C)CCCCCCCCN(C)C(=O)CCCCC[N+](C)(CC)Cc1ccccc1Cl)Cc1ccccc1Cl (configuration not stated)	2570	19.5							
CCN(CCCCCC(=O)N(C)CCCCCCCCN(C)C(=O)CCCCCN(CC)Cc1ccccc1Cl)Cc1ccccc1Cl	4070	112	7.19	6.92	5.61				
CC[N+](C)(CCCCCC(=O)N(C)CCCCCCCCN(C)C(=O)CCCCC[N+](C)(CC)Cc1ccccc1OC)Cc1ccccc1OC (configuration not stated)	1410	12	7.21			12	11	11	
CCN(CCCCCC(=O)N(C)CCCCCCCCN(C)C(=O)CCCCCN(CC)Cc1ccccc1[N+](=O)[O-])Cc1ccccc1[N+](=O)[O-]	55000	794	5.93	6.26		794	79.4	32.4	
CCN(CCCCCC(=O)N(C)CCCCCCCCN(C)C(=O)CCCCCN(CC)Cc1ccccc1)Cc1ccccc1	1070	49	6.32	7.42					
CCN(CCCCCC(=O)N(CCCCCCCCN(C(=O)CCCCCN(CC)Cc1ccccc1OC)C(C)C)C(C)C)Cc1ccccc1OC	2140	18.2							
COc1ccc(CN(C)CCCCCC(=O)N(C)CCCCCCCCN(C)C(=O)CCCCCN(C)Cc2ccc(OC)cc2)cc1	5500	5750							
CNC(=O)Oc1ccc2c(c1)[C@]1(C)CCN(C)[C@@H]1N2C [PHYSOSTIGMINE]			6.5						
CCCOc1ccccc1C[N+](C)(CC)CCCCCC(=O)N(C)CCCCCCCCN(C)C(=O)CCCCC[N+](C)(CC)Cc1ccccc1OCCC (configuration not stated)	83.2	17.4							
COc1ccccc1CN(CCCCCC(=O)N(C)CCCCCCCCN(C)C(=O)CCCCCN(Cc1ccccc1OC)C(C)C)C(C)C	871	72.4							
CC[N+](C)(CCCCCC(=O)N(C)CCCCCCCCN(C)C(=O)CCCCC[N+](C)(CC)Cc1ccccc1C)Cc1ccccc1C (configuration not stated)	6460	16.6							
CC[N+](C)(CCCCCC(=O)N(CCCCCCCCN(C(=O)CCCCC[N+](C)(CC)Cc1ccccc1OC)C(C)C)C(C)C)Cc1ccccc1OC (configuration not stated)	1660	8.13							
CCN(CCCCCC(=O)N(C)CCCCCCCCN(C)C(=O)CCCCCN(CC)Cc1ccccc1OC)Cc1ccccc1OC	2240	18.6	6.45	7.8	5.65	18.6	17.4	16.2	12.2
